“Also recorded” adds a separate entry of the source.
Experiments:
[1] = tested on: radiation-damaged reporter DNA in H23 lung cells; test: Reporter DNA repair assay; assay type: cell-based, human; settings: 24 h after transfection, 2 nM E2, 0.5 nM DPN or ERB
Text: FIG. 9. […] 15; 59(6):1347-55); data are from 3 experiments (mean±SEM).

[2] = tested on: phospho-serine-1981-ATM (PS-ATM) in A549 cells; test: RT-induced ATM activation (PS-ATM staining); assay type: cell-based, human; settings: treated 2 h, 5 Gy, stained 2 h after radiation, E2 10 nM, DPN/PPT 1 μM
Description: Phosphoryaltion of ATM is a critical first step in cell responses to RT (FIG. 3). Lung cells treated with control or estrogen for 2 hr were then irradiated and examined after 2 h for ATM activation (FIG. 10).

[3] = tested on: lung cells; test: TUNEL assay of apoptosis after RT; assay type: cell-based; settings: E2 10 nM, DPN 1 μM, PPT 1 μM for 2 h, then 15 Gy, TUNEL after 48 h
Text: Cell death is a measurable outcome due to significant radiation injury.

[4] = tested on: MDM2 in A549 lung epithelial cells; test: MDM2 expression by Western blot; assay type: cell-based, human; settings: E2 10 nM, DPN or PPT 1 μM for 24 h
Text: Estrogens modulate MDM2 expression in lung cells. MDM2 is well known to bind and inhibit p53 FIG. 3). ERα binds and regulates the MDM2 promoter to stimulate MDM2 expression (see FIG. 12). Indeed, MDM2 SNP309 is reported to occur in an ER binding region of the MDM2 promoter, and affected individuals with SNP309 have increased MDM2 levels mediated by estrogen signaling (33,34).

[5] = tested on: VEGF secretion by H23 lung epithelial cells; test: VEGF secretion by ELISA after irradiation; assay type: cell-based, human; settings: for VEGF secretion after irradiation: H23, treated 2 hrs before irradiation (10 Gy), ELISA after 24 hrs; for increase in vascular endothelial growth factor (VEGF) secretion: lung epithelial cells pre-treated (E2 2 nM, DPN 5 nM, 2 hrs) before irradiation (10 Gy), P<0.001
[6] = tested on: H23 lung epithelial cells with ERβ silencing (ERbKD); test: Cell survival after irradiation with ERβ siRNA knockdown; assay type: cell-based, human; settings: lung epithelial cells treated with siRNA to suppress ERβ expression
Description: FIG. 8. H23 lung epithelial cells were transfected with control non-specific siRNAs (CON) or smart-pool ESR2 [ERβ] siRNA for ERβ silencing (ERbKD) as before (31,32); control cells were then treated with or without estradiol (E2) and compared with ERbKD cells treated with estradiol for 2 hrs before irradiation at 0-15 Gy as indicated in the figure (n=3 experiments); surviving cell fractions (%) are plotted on a log scale at increasing radiation doses.
To further assess the role of ERβ as a radioprotector and potential radiation mitigator, lung epithelial cells were treated with small inhibitory RNAs (siRNA) to suppress ERβ expression using established methods (Márquez-Garbán D C, Chen H W, Fishbein M C, Goodglick L, Pietras R J. Steroids. 2007 February; 72(2):135-43. Epub 2007 Feb. 5; Márquez D C, Chen H W, Curran E M, Welshons W V, Pietras R J. Mol Cell Endocrinol. 2006 Feb. 26; 246(1-2):91-100. Epub 2006 Jan. 4). […] Thus, ERβ appears to play a critical role in mediating effects of estrogen post-irradiation.

[7] = tested on: normal human bronchial epithelial (NHBE) cells; test: Cell viability after irradiation (NHBE cells); assay type: cell-based; settings: 5 nM for 2 h before irradiation (2 Gy), up to 48 h
Text: An additional experiment was done using normal human bronchial epithelial (NHBE) cells (see FIG. 7). […] These collective findings support the underlying hypothesis on the role of ERβ signaling in modulating radiation sensitivity.

[8] = tested on: C57/BL6 mice; test: Survival after lethal TBI, C57/BL6 mice; assay type: in vivo; settings: male C57/BL6 mice; 8.5 Gy TBI; DPN 10 mg/kg SC or ERB-041 50 mg/kg oral gavage daily for 5 days starting 24 hours after TBI; 30 days
Text: FIG. 15. […] Mice (n=8/group) received 8.5 Gy TBI. […] Controls received appropriate vehicle treatment (e.g. SC [CON SC] or OG [CON OG].
To validate our results above using a different animal model, we used C57/BL6 mice that were also bred and maintained in our AALAC-accredited animal facilities. As above, the UCLA ARC approved all studies. Male mice, 9 weeks-old, in a well-ventilated Lucite chamber without anesthesia received 8.5 Gy TBI from a Gamma Cell 40 irradiator (^137Cs source; Atomic Energy of Canada) at a dose rate of 67 cGy/min. […] Mice were monitored for 30 days using standard criteria for humane euthanasia as an endpoint and weights were recorded twice/week. […] These preliminary findings (FIGS. 14 & 15) provide good evidence to pursue further investigation of ERβ ligands as radiation mitigators.

[9] = tested on: H23 lung epithelial cells; test: Cell survival after irradiation (H23 lung epithelial cells); assay type: cell-based, human; settings: P<0.001; for lung cell survival post-radiation: H23, pre-treatment before irradiation
Text: (§1) FIGS. 6A-6B. […] 15; 59(6):1347-55).
(§2) ER-selective ligands increase survival of epithelial and endothelial cells post-radiation.

[10] = in vivo; cited from earlier work
[11] = tested on: C3H mice; test: Survival after lethal TBI, C3H mice; assay type: in vivo; settings: for lethality and survival after TBI: male C3H mice, 7.725 Gy TBI, DPN 10 mg/kg SC or ERB-041 50 mg/kg oral gavage daily for 5 days starting 24 h after TBI
Text: C3H mice were bred and maintained in a strict defined-flora, pathogen-free environment in the AALAC-accredited animal facilities. The UCLA ARC approved all experiments which were done in accord with all local and national guidelines for care and use of animals. Male mice, 9-10 wks old, received 7.725 Gy TBI from a Gamma Cell 40 irradiator (^137Cs source; Atomic Energy of Canada) at a dose rate of 67 cGy/min. […] Mice were monitored for up to 60 days using standard criteria for humane euthanasia as an endpoint and weights were recorded twice/week.

[12] = tested on: human vascular endothelial cells (HUVEC); test: Cell survival after irradiation, drug given 24 h after RT (HUVEC); assay type: cell-based; settings: for cell survival post-radiation (radiation mitigation): HUVEC, treatment at 24 hours after irradiation, P<0.001
Text: as §1, §2

[13] = biological target: T1, ERα (Homo sapiens, UniProt P03372); settings: Harrington et al. 2003; cited from earlier work
T1 sequence (P03372 1-595): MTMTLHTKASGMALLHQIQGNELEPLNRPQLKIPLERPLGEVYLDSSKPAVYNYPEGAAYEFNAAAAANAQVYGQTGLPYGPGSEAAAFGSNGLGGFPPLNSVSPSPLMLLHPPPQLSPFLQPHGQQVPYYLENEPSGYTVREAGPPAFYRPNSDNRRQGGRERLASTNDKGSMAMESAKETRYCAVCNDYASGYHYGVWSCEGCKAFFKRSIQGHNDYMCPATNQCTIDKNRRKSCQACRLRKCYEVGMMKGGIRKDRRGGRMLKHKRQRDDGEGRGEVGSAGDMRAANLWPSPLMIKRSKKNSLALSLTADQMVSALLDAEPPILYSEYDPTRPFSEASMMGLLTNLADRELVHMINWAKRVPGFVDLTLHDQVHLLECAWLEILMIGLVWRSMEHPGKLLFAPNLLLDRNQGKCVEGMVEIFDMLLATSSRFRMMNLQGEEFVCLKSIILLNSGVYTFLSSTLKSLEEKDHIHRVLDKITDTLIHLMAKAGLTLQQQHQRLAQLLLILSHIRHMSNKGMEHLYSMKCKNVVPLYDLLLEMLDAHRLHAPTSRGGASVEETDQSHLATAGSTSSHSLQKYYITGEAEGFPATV

[14] = tested on: sublethally-irradiated mice; settings: treatment 24 h before RT; cited from earlier work
[15] = tested on: ERβ-EGFR interaction in H23 lung tumor cells; test: ERβ-EGFR co-immunoprecipitation; assay type: cell-based, human; settings: DPN treatment
Description: EGF stimulates ERβ-EGFR interaction in epithelial cells. To assess the idea that ERβ interacts with EGFR to promote cross-talk in signaling, the association of these molecules in co-immunoprecipitation studies was tested in vitro (Márquez D C, Lee J, Lin T, Pietras R J. Endocrine. 2001 November; 16(2):73-81) (FIG. 4).

SMILES: C[C@]12CC[C@@H]3c4ccc(O)cc4CC[C@H]3[C@@H]1CC[C@@H]2O [E2, estradiol-17β]
- repair of radiation-damaged reporter DNA [1]: stimulation of enhanced DNA repair after irradiation
- repair of radiation-damaged reporter DNA ([1]; listed as Estrogen): stimulate repair of radiation-damaged reporter DNA
- ATM phosphorylation at serine 1981 (nuclear clustering of PS-ATM) after irradiation [2]: increased
- radiation-induced apoptosis [3]: showed efficacy in suppressing radiation-induced apoptosis
- MDM2 levels [4]: stimulate MDM2 levels
- VEGF secretion after irradiation [5]: stimulate high levels of VEGF secretion
- increase in vascular endothelial growth factor (VEGF) secretion [5]: 2 fold
- radioprotective / radiation mitigator effect in cells with ERβ knockdown [6]: failed to show a radioprotective effect

SMILES: C=Cc1cc(O)cc2nc(-c3ccc(O)c(F)c3)oc12 [ERB-041, (4Z)-4-(7-ethenyl-5-hydroxy-3H-1,3-benzoxazol-2-ylidene)-2-fluorocyclohexa-2,5-dien-1-one]
- repair of radiation-damaged reporter DNA [1]: stimulation of enhanced DNA repair after irradiation
- cell viability / protection from radiation injury ([7]; P<0.001): protect normal epithelial cells from radiation injury
- cell viability / protection from radiation injury ([7]; P<0.001, listed as ERB): significantly different from control
- lethality and survival after TBI [8]: somewhat less efficacious as a radiation mitigator
- lung cell survival post-radiation [9]: dose-dependent increase in lung cell survival post-radiation
- oral bioavailability [10]: notable oral bioavailability
- lethality and survival after TBI [11]: somewhat less efficacious as a radiation mitigator
- cell survival post-radiation (radiation mitigation) [12]: mitigates these effects in HUVEC cells

SMILES: CCCc1c(-c2ccc(O)cc2)nn(-c2ccc(O)cc2)c1-c1ccc(O)cc1 [PPT, Propylpryazoletriol]
- ATM phosphorylation at serine 1981 (nuclear clustering of PS-ATM) after irradiation [2]: not
- radiation-induced apoptosis [3]: showed efficacy in suppressing radiation-induced apoptosis
- MDM2 levels [4]: stimulate MDM2 levels
- ERα agonism [13]: potent ERα agonist

SMILES: O=c1c(-c2ccc(O)cc2)coc2cc(O)cc(O)c12 [Genistein]
- survival of irradiated mice [14]: increased survival without other significant toxicity

SMILES: N#CC(Cc1ccc(O)cc1)c1ccc(O)cc1 (stereo not shown) [DPN, 2,3-bis[4-hydroxyphenyl]-propionitrile]
- repair of radiation-damaged reporter DNA [1]: stimulation of enhanced DNA repair after irradiation; also recorded: stimulates repair of radiation-damaged reporter DNA
- cell viability / protection from radiation injury ([7]; P<0.001): protect normal epithelial cells from radiation injury; also recorded: significantly different from control
- lethality and survival after TBI [8]: protects mice from lethality and improves survival
- radiation-induced apoptosis [3]: showed efficacy in suppressing radiation-induced apoptosis; also recorded: reduce radiation-induced apoptosis
- interaction of ER-beta with EGFR [15]: promotes interaction of ERβ with EGFR; also recorded: promotes interaction of ER-beta with EGFR
- lung cell survival post-radiation [9]: dose-dependent increase in lung cell survival post-radiation
- effect as a radiation mitigator ([9]; H23 cells, treatment at 24 hrs after irradiation, two experiments): comparable effect as a radiation mitigator
- VEGF secretion after irradiation [5]: stimulate high levels of VEGF secretion
- increase in vascular endothelial growth factor (VEGF) secretion [5]: 2 fold
- VEGF secretion, treatment after irradiation ([5]; treatment at 24 hours after irradiation (10 Gy), vs controls P<0.001): comparable increase in VEGF secretion; also recorded: significant increase in VEGF secretion
- radioprotective / radiation mitigator effect in cells with ERβ knockdown [6]: abolished
- lethality and survival after TBI [11]: protected mice from lethality and improved survival
- post-irradiation survival ([11]; mouse models in vivo, subcutaneous, treatment started 24 hours after TBI): 100%
- post-irradiation time window ([11]; radiation mitigator): > 24 h
- cell survival post-radiation (radiation mitigation) [12]: mitigates these effects in HUVEC cells
- Cell survival ([12]; normal human lung epithelial and vascular endothelial cells in vitro, treatment at 24-hr after irradiation, vs controls P<0.001): significantly improved in a dose-dependent fashion

From US20150018398A1, “METHODS OF USING ESTROGEN RECEPTOR-BETA LIGANDS AS RADIATION MITIGATORS” (The Regents of the University of California, priority 2013, published 2015)
